Results on three compounds are retold here after publication PMC5473904, “Epigenetic and antitumor effects of platinum(IV)-octanoato conjugates” (Scientific Reports, 2017).

Data set [1] concerns A2780 human ovarian carcinoma cells. Briefly: MTT cytotoxicity, 72 h. The settings on record: for IC50: MTT, 72 h, platinum complexes. Format: cell-based.
The subject of data set [2] is A2780cisR human ovarian carcinoma cells. As to the kind of experiment: MTT cytotoxicity, 72 h. Format: cell-based. Conditions: for RF, resistance factor: IC50 (resistant, A2780cisR)/IC50 (sensitive, A2780); for IC50: MTT, 72 h, platinum complexes. As for the experimental part: (§1) Cytotoxic activity of the compounds tested in the present work was screened on the panel of malignant and nonmalignant cell lines using the colorimetric MTT assay and 72 h of drug incubation period.
(§2) Cell death was evaluated using a system based on the tetrazolium compound MTT [3-(4,5-dimethyl-2-thiazolyl)-2,5-diphenyl-2H-tetrazolium bromide]. The cells were seeded in 96-well tissue culture plates at a density of 10^4 A2780cisR, LNCaP, HSF cells/well, 3 × 10^3 CHO-K1 or 4 × 10^3 MCF7, HCT-116 and MRC5 pd30 cells/well in 100 μL of medium. After overnight incubation (16 h), the cells were treated with the compounds in a final volume of 200 μL/well. After additional 72 h, 10 μL of a freshly diluted MTT solution (2.5 mg mL^−1) was added to each well, and the plate was incubated at 37 °C in a humidified 5% CO2 atmosphere for 4 h. At the end of the incubation period, the medium was removed, and the formazan product was dissolved in 100 μL of DMSO. The cell viability was evaluated by measurement of the absorbance at 570 nm, using an Absorbance Reader SUNRISE TECAN SCHOELLER. IC50 values were calculated from curves constructed by plotting cell survival (%) versus drug concentration (μM). All experiments were made in triplicate. The reading values were converted to the percentage of control (% cell survival). Cytotoxic effects were expressed as IC50.

Data set [3] deals with CHO-K1 Chinese hamster ovary cells. Briefly: MTT cytotoxicity, 72 h. It is filed as cell-based. The settings on record: platinum complexes. As for the experimental part:
as §1, §2

The subject of data set [4] is HCT-116 human colorectal carcinoma cells. As to the kind of experiment: MTT cytotoxicity, 72 h. It is filed as cell-based. Conditions: for IC50: MTT, 72 h, platinum complexes and decitabine. As for the experimental part: as §1, §2
Data set [5] relates to MCF-7 human breast cancer cells. Briefly: MTT cytotoxicity, 72 h. It is filed as cell-based. Conditions: platinum complexes. As for the experimental part:
as §1, §2

A further data set relates to PNT1a. Briefly: MTT cytotoxicity, 72 h. Format: cell-based. Conditions: platinum complexes.
For another data set, the system named is DNA from A2780 cells. Briefly: Platinum content on DNA isolated from treated cells (ICP-MS). Format: cell-based, human. The settings on record: for Platinum content on DNA / Platinum on DNA, % from the total intracellular Pt amount: A2780, 24 h, 0.35 µM; for Platinum on DNA, % from the total intracellular Pt amount: rough estimate from Tables 2 and 3. As for the experimental part:
(§3) As for antitumor cisplatin and its direct derivatives, DNA is believed to be the target also for Pt(IV) prodrugs examined in the present work.
(§4) The cells were seeded in 150 cm^2 culture flasks at a density 1 × 10^7 cells/flask (67 000 cells/cm^2). After 48-h incubation, the cells were treated with the compounds (0.35 μM) for 24 h. The attached cells were washed twice with PBS (4 °C). As mentioned in the preceding paragraph, 75% of cells were used for analysis of platinum bound to DNA, remaining 25% were used for estimations of cellular accumulation of platinum. Cells were then lysed in DNAzol (DNAzol® genomic DNA isolation reagent, MRC) supplemented with RNase A (100 μg mL^−1). The genomic DNA was precipitated from the lysate with ethanol, dried and resuspended in water. The DNA content in each sample was determined by UV spectrophotometry. The DNA samples were digested in the presence of hydrochloric acid (11 M) using high-pressure microwave mineralization system (MARS5, CEM). The platinum content was determined by ICP-MS. Experiments were performed in triplicate and the values are the means ± SD.

Another data set deals with DNA from HCT-116 cells. Described as above. It is filed as cell-based, human. Conditions: for Platinum content on DNA / Platinum on DNA, % from the total intracellular Pt amount: HCT-116, 24 h, 0.35 µM; for Platinum on DNA, % from the total intracellular Pt amount: rough estimate from Tables 2 and 3. As for the experimental part:
as §3, §4

Data set [6] concerns DNMT enzymes in HCT-116 cells. Briefly: DNMT activity in nuclear extracts of treated cells. Format: cell-based, human. The settings on record: 24 h. As for the experimental part: In these experiments, the total activity of DNMT enzymes was determined in nuclear extracts prepared from HCT-116 cells which were treated with the platinum compounds, free OA or decitabine for 24 h (Fig. 4B).
Human colon carcinoma cells (HCT-116) were seeded in 100 mm culture dishes at the density 1.5 × 10^6 cells/dish. Cells were harvested after 24 h of incubation with the compounds tested in the present work (1 µM). Nuclear extracts from the pellets were separated using EpiQuik Nuclear extraction kit I (Epigentek, NY) according to manufacturer’s instructions. Quantification of nuclear proteins was analyzed with the standard Bradford assay. The activity of DNMT enzymes was analyzed using the EpiQuik DNMT activity/inhibition assay Ultra kit (Epigentek, NY), according to the manufacturer´s protocol. Briefly, 10 µg of total nuclear protein was analyzed for its DNMT activity. The reaction time with a universal DNMT substrate stably coated onto microplate wells was 120 min at 37 °C. The final signal at the end of the ELISA reaction was detected at 450 nm (reference 620 nm). DNMT activity was normalized to controls and expressed in the percent or absolute values as OD h^−1 mg^−1, calculated as described in the manufacturer’s manual.

The subject of a further data set is HCT-116 cells. As to the kind of experiment: Cellular platinum accumulation/distribution by ICP-MS. It is filed as cell-based, human. Conditions: HCT-116, 24 h, 0.35 µM.

Take `N.N.[Cl][Pt][Cl]` [cisplatin, reference compound]: the IC50 – broadly, the concentration that inhibits the measured activity by half – was determined as 2.8 ± 0.1 µM in data set [1]; 13.8 ± 0.1 µM in data set [2]; 19.9 ± 1 µM in data set [3]; 5.9 ± 0.9 µM in data set [4]; 17.4 ± 1.9 µM in data set [5]; 2.5 ± 0.32 µM with PNT1a. Also, in data set [2], the “RF, resistance factor” value came to 4.9. For the same compound, the “Platinum content on DNA” value in the data set on DNA from A2780 cells came to 1.5 ± 0.6 pg Pt/µg DNA; in the data set with DNA from HCT-116 cells, 1.6 ± 0.2 pg Pt/µg DNA. Further, the entries for the “Platinum on DNA, % from the total intracellular Pt amount” value (shortened to “Platinum on DNA, %”) in the data set on DNA from A2780 cells and in the data set on DNA from HCT-116 cells were 2.0% and 2.2%, respectively. The “Activity of DNMT enzymes” value in [6] (HCT-116, 1.0 µM) was “no significant effect”; in [6] (HCT-116, 30 µM), “no significant effect”. This compound showed a Platinum in cytosol in the data set on HCT-116 cells of 3.6 ± 0.2 pg Pt/µg protein. Further, the Platinum in nucleus in the data set on HCT-116 cells was 4.1 ± 0.3 pg Pt/µg protein.

Regarding `CCCCCCCC(=O)[O][Pt]([NH2])([NH2])([Cl])([Cl])[O]C(=O)CCCCCCC` [Pt(IV)diOA, cis, cis, trans-[Pt(IV)(NH3)2Cl2(OA)2]], the “Increase of cytotoxicity vs. cisplatin” value is listed as 68 x in [1] (A2780, Fig. 2A) and 347 x in data set [4] (HCT-116, Fig. 2B). For the same compound, the “Increase of cytotoxicity vs. Pt(IV)diAc” value in data set [1] (A2780, Fig. 2C) was determined as 129 x; in [4] (HCT-116, Fig. 2D), 2076 x. In addition, the IC50 in data set [1] was determined as 0.041 ± 0.001 µM; in [2], 0.029 ± 0.002 µM; in [3], 0.14 ± 0.02 µM; in data set [4], 0.017 ± 0.003 µM; in data set [5], 0.038 ± 0.006 µM; with PNT1a it was 0.022 ± 0.001 µM. Besides, the “RF, resistance factor” value in data set [2] was found to be 0.7. The figures for the “Platinum content on DNA” value with DNA from A2780 cells and in the data set on DNA from HCT-116 cells were 43.3 ± 5.3 pg Pt/µg DNA and 123.1 ± 5.1 pg Pt/µg DNA, respectively. Also, the “Platinum on DNA, %” value in the data set on DNA from A2780 cells is 13.0%; in the data set with DNA from HCT-116 cells, 11.9%. Moreover, the “Increase of DNA platination vs. cisplatin” value with DNA from A2780 cells (A2780, Fig. 2A) is given as 28 x; in the data set with DNA from HCT-116 cells (HCT-116, Fig. 2B), 77 x. Moreover, the “Increase of DNA platination vs. Pt(IV)diAc” value turned out to be 39 x with DNA from A2780 cells (A2780, Fig. 2C) and 95 x in the data set on DNA from HCT-116 cells (HCT-116, Fig. 2D). In addition, the “Activity of DNMT enzymes” value in data set [6] (HCT-116, 0.5 µM) is “enhanced activity of DNMT enzymes”; in data set [6] (HCT-116, 1.0 µM) it was “enhanced activity of DNMT enzymes”. For the same compound, in the data set with HCT-116 cells, the Platinum in cytosol came to 59 ± 7 pg Pt/µg protein. Besides, in the data set with HCT-116 cells, the Platinum in nucleus is given as 189 ± 9 pg Pt/µg protein.

As to `CC(=O)[O][Pt]([NH2])([NH2])([Cl])([Cl])[O]C(C)=O` [Pt(IV)diAc, cis, cis, trans-[Pt(IV)(NH3)2Cl2(Ac)2]], the IC50 in data set [1] is 5.3 ± 1 µM; in [2], 22 ± 3.1 µM; in [3], 14.5 ± 0.7 µM; in [4], 35.3 ± 1.4 µM; in [5], 51 ± 4 µM; in the data set with PNT1a it was 2.48 ± 0.1 µM. For the same compound, the “RF, resistance factor” value in data set [2] stood at 4.2. Also, the “Platinum content on DNA” value is 1.1 ± 0.4 pg Pt/µg DNA in the data set on DNA from A2780 cells and 1.3 ± 0.1 pg Pt/µg DNA in the data set with DNA from HCT-116 cells. Besides, the “Platinum on DNA, %” value is recorded as 1.9% in the data set with DNA from A2780 cells and 2.0% in the data set with DNA from HCT-116 cells. For the same compound, the “Activity of DNMT enzymes” value in [6] (HCT-116, 1.0 µM) is listed as “no significant effect”. This compound registered a Platinum in cytosol in the data set on HCT-116 cells of 2.1 ± 0.3 pg Pt/µg protein. Besides, the Platinum in nucleus in the data set with HCT-116 cells was determined as 4.6 ± 0.5 pg Pt/µg protein.
